“Also recorded” adds a separate entry of the source.
Columns and labels:
W20 [1] = test: Test C preemergence (soil) sulfonylurea application; format: in vivo, soybean; settings: 19 days after treatment
Source text: (§1) W20, a line homozygous for a dominant sulfonylurea-resistance mutation, was compared to Williams 82 in terms of response to preemergence application of three sulfonylurea herbicides. The experimental unit consisted of a single 18 cm pot filled with soil (Sassafras loamy sand with 0.8% organic matter and pH 6.7) in which 6 seeds of a given soybean line were planted 2 cm deep. After planting, each pot was sprayed (using a conveyor belt spray apparatus to emulate field application) with one of 22 different treatments including a check sprayed with AGWT (90% acetone, 4% glycerol, 4% water, 2% Tween-20), and 21 different herbicide treatments using AGWT as a carrier. The herbicide treatments included 7 different concentrations (Table IX) each of three sulfonyl-ureas: Compound 5, Compound 4, and Compound 1. Each herbicide x line treatment was replicated three times. After herbicide treatment, pots were transferred to a greenhouse and arranged in a randomized complete block design. Nineteen days after treatment, each pot was rated visually for herbicide injury using the scale described previously. For each herbicide, analysis of variance on injury ratings was performed separately. Fisher's least significant difference (LSD) was used to determine the significance of line mean differences at each rate using the 95% level of confidence.

Williams 82 = test: as above; format: in vivo, soybean; settings: 19 days after treatment
Source text: as §1

[2] = test system: Acetolactate synthase (ALS) from leaves of W19; test: Test D ALS assay with chlorsulfuron; format: biochemical, soybean
Description: (§2) Acetolactate synthase (ALS) was extracted from leaves of soybean plants growing vegetatively. The leaves were homogenized in 4 volumes of buffer containing 100 mM hepes (pH 7.5), 1 mM sodium pyruvate, 0.5 mM magnesium chloride, 0.5 mM thiamine pyrophosphate, […], 10% glycerol, 5% PVPP, and 0.2% mercaptoethanol. The homogenate was filtered through cheese cloth and centrifuged at 20,000 g for 20 min. ALS was precipitated from the supernatant with ammonium sulfate. The enzyme was collected between 20 and 60% saturation by centrifugation at 20,000 g for 20 min. The pellet was resuspended in buffer containing 100 mM Hepes, 1 mM sodium pyruvate, and 0.5 mM magnesium chloride, and desalted on PD-10 columns (Pharmacia) equilibrated with the same buffer. ALS assays were carried out in a final volume of 0.5 mL at 30° C. The final reaction mixture contained 100 mM Hepes (pH 7.5), 1 mM magnesium chloride, 60 mM sodium pyruvate, 0.4 mM thiaminepyrophosphate, […], and various concentrations of chlorsulfuron. The assays were initiated with the addition of enzyme ([…]) and terminated with the addition of […] of 6N sulfuric acid. The acidified reaction mixture was heated to 60° C. for 15 min, after which 0.5 mL of 0.5% (W/V) creatine and 0.5 mL of 5% (W/V) napthol (freshly prepared in 2.5 N sodium hydroxide) were added. The reaction mixtures were heated for an additional 15 min at 60° C., and the absorbance was read at 525 nm. Data are expressed in terms of % control (minus Compound 1) activity and are the average of two replications. Fisher's least significant difference (LSD) value (at the 95% level of confidence) was calculated for each Compound 1 concentration to determine the significance of genotype mean differences.

[3] = test system: Acetolactate synthase (ALS) from leaves of W20; test: Test D ALS assay with chlorsulfuron; format: biochemical, soybean
Description: as §2

[4] = test system: Acetolactate synthase (ALS) from leaves of W23; test: Test D ALS assay with chlorsulfuron; format: biochemical, soybean
Description: as §2

[5] = test system: Acetolactate synthase (ALS) from leaves of W28; test: Test D ALS assay with chlorsulfuron; format: biochemical, soybean
Description: as §2

[6] = test system: Acetolactate synthase (ALS) from leaves of Williams 82; test: Test D ALS assay with chlorsulfuron; format: biochemical, soybean
Description: as §2

[7] = test system: mutants that have heritable sulfonylurea tolerance; test: Pilot studies, threshold concentration in hydroponic system; format: in vivo, soybean; settings: sulfonylurea tolerant mutants, 100 mg/L used to irrigate the hydroponic system
Source text: (§3) The same sulfonylurea concentrations would select only highly resistant plants.

wild type soybeans = test: as above; format: in vivo, soybean; settings: 100 mg/L used to irrigate the hydroponic system
Source text: as §3

W20 [8] = test: Seed soak test with Compound 8; format: in vivo, soybean; settings: W20, seeds soaked 16 hours in 2 ppm solution
Description: The second screening protocol was carried out as follows: samples of seed from W20 were tested for preemergence tolerance to Compound 8 by soaking seeds in a 2.0 ppm buffered solution of Compound 8 for 16 hours, rinsing, and planting in flats in a greenhouse.
(§4) The original W4-4 M2 plant was allowed to self pollinate, mature, and produced a family of M3 seeds. An M3 progeny test was then conducted to determine if the new resistance phenotype was heritable and if the M3 family was true-breeding or segregating for the new resistance trait. The M3 progeny of W4-4 were screened for resistance with the same seed soak technique used to select the original W4-4 M2 plant. Twenty seeds each of the W4-4 M3 family, W20 line, and Williams line were soaked for 16 hours in a solution of 2 ppm of Compound 8. Twenty additional seeds of Williams were soaked for 16 hours in plain tap water as a control treatment. Treated seeds were then washed for two minutes in running water. Each seed was then planted in a separate pot for ease of observation.

W4-4 M3 family = test: Seed soak test with Compound 8; format: in vivo, soybean; settings: W4-4 M3, seeds soaked 16 hours in 2 ppm solution, within two weeks of planting
Description: as §4

Williams = test: Seed soak test with Compound 8; format: in vivo, soybean; settings: seeds soaked 16 hours in 2 ppm solution, within two weeks of planting
Description: as §4

## COc1nc(C)nc(NC(=O)NS(=O)(=O)c2ccccc2Cl)n1 [Compound 1, 2-chloro-N-[[(4-methoxy-6-methyl-1,3,5-triazin-2-yl)amino]carbonyl]benzenesulfonamide]
W20 [1]; W20, 0.3 g/ha preemergence
  % Injury: 0%
W20 [1]; W20, 1 g/ha preemergence
  % Injury: 0%
W20 [1]; W20, 3 g/ha preemergence
  % Injury: 3%
W20 [1]; W20, 10 g/ha preemergence
  % Injury: 3%
W20 [1]; W20, 30 g/ha preemergence
  % Injury: 18%
W20 [1]; W20, 100 g/ha preemergence
  % Injury: 63%
W20 [1]; W20, 300 g/ha preemergence
  % Injury: 65%
Williams 82; WM 82, 0.3 g/ha preemergence
  % Injury: 30%
Williams 82; WM 82, 1 g/ha preemergence
  % Injury: 50%
Williams 82; WM 82, 3 g/ha preemergence
  % Injury: 73%
Williams 82; WM 82, 10 g/ha preemergence
  % Injury: 95%
Williams 82; WM 82, 30 g/ha preemergence
  % Injury: 100%
Williams 82; WM 82, 100 g/ha preemergence
  % Injury: 100%
Williams 82; WM 82, 300 g/ha preemergence
  % Injury: 100%
[2]; W19, chlorsulfuron 10 mg/l-l
  uninhibited ALS activity (% of control): 60.7 % of control
[2]; W19, chlorsulfuron 20 mg/l-l
  uninhibited ALS activity (% of control): 54.5 % of control
[2]; W19, chlorsulfuron 50 mg/l-l
  uninhibited ALS activity (% of control): 48.7 % of control
[2]; W19, chlorsulfuron 100 mg/l-l
  uninhibited ALS activity (% of control): 45.7 % of control
[2]; W19, chlorsulfuron 200 mg/l-l
  uninhibited ALS activity (% of control): 40.8 % of control
[3]; W20, chlorsulfuron 10 mg/l-l
  uninhibited ALS activity (% of control): 50.6 % of control
[3]; W20, chlorsulfuron 20 mg/l-l
  uninhibited ALS activity (% of control): 35.2 % of control
[3]; W20, chlorsulfuron 50 mg/l-l
  uninhibited ALS activity (% of control): 31.1 % of control
[3]; W20, chlorsulfuron 100 mg/l-l
  uninhibited ALS activity (% of control): 20.8 % of control
[3]; W20, chlorsulfuron 200 mg/l-l
  uninhibited ALS activity (% of control): 19.0 % of control
[4]; W23, chlorsulfuron 10 mg/l-l
  uninhibited ALS activity (% of control): 55.3 % of control
[4]; W23, chlorsulfuron 20 mg/l-l
  uninhibited ALS activity (% of control): 46.3 % of control
[4]; W23, chlorsulfuron 50 mg/l-l
  uninhibited ALS activity (% of control): 38.9 % of control
[4]; W23, chlorsulfuron 100 mg/l-l
  uninhibited ALS activity (% of control): 37.4 % of control
[4]; W23, chlorsulfuron 200 mg/l-l
  uninhibited ALS activity (% of control): 34.0 % of control
[5]; W28, chlorsulfuron 10 mg/l-l
  uninhibited ALS activity (% of control): 54.6 % of control
[5]; W28, chlorsulfuron 20 mg/l-l
  uninhibited ALS activity (% of control): 46.1 % of control
[5]; W28, chlorsulfuron 50 mg/l-l
  uninhibited ALS activity (% of control): 42.8 % of control
[5]; W28, chlorsulfuron 100 mg/l-l
  uninhibited ALS activity (% of control): 36.4 % of control
[5]; W28, chlorsulfuron 200 mg/l-l
  uninhibited ALS activity (% of control): 34.3 % of control
[6]; WM 82, chlorsulfuron 10 mg/l-l
  uninhibited ALS activity (% of control): 41.1 % of control
[6]; WM 82, chlorsulfuron 20 mg/l-l
  uninhibited ALS activity (% of control): 26.3 % of control
[6]; WM 82, chlorsulfuron 50 mg/l-l
  uninhibited ALS activity (% of control): 15.0 % of control
[6]; WM 82, chlorsulfuron 100 mg/l-l
  uninhibited ALS activity (% of control): 11.1 % of control
[6]; WM 82, chlorsulfuron 200 mg/l-l
  uninhibited ALS activity (% of control): 8.5 % of control
[7]
  leaf formation: allow unifoliolate (but not trifoliolate) formation
Wild type soybeans
  leaf and root development: consistently stunt or inhibit leaf and root development

## COC(=O)c1cccnc1S(=O)(=O)NC(=O)Nc1nc(OC)cc(OC)n1 [Compound 8, Methyl 2-[[[[(4,6-dimethoxy-2-pyrimidinyl)amino]carbonyl]amino]sulfonyl]-3-pyridinecarboxylate]
W20 [8]
  seedling development after seed soak: uniformly inhibit growth of W20 beyond the stage of emergence and cotyledon expansion; also recorded: had not started to form true leaves
W4-4 M3 family
  seedling development after seed soak: had developed both unifoliolate and trifoliolate leaves
Williams
  seedling development after seed soak: had not started to form true leaves
